Reference: publication PMC3894558, “Chemical signatures and new drug targets for gametocytocidal drug development” (Scientific Reports, 2014)
Like-named read-outs stand apart in the source and are kept apart here.

System: P. falciparum 3D7 gametocytes
Assay: alamarBlue gametocyte viability assay, strain 3D7
Type: cell-based, Plasmodium falciparum
Settings: for Max Resp: DMSO set at 0%, 100 nM epoxomicin set at -100%; call rule not given here
[1] = Malaria Box, stages III-V 3D7 gametocytes
[2] = Malaria Box, stages III-V 3D7 gametocytes, 11 concentrations, 1:3 dilution
[3] = Malaria Box, stages III-V 3D7 gametocytes, 11 concentrations, 1:3 dilution, read-out: IC50

SMILES | Max Resp (Malaria Box) [%] | Curve Class [1] | IC50 [2] | IC50 [3] [µM] | reduction of gametocyte viability (Malaria Box screen) [%] | IC50 (P. falciparum 3D7 gametocytes, mean of at least 3 independent experiments, read-out: Gametocyte IC50) [µM]
CCCCN(CCCC)S(=O)(=O)c1ccc(NC(=O)c2ccco2)cc1 [MMV007881] | 15 | 4 | Inactive | – | – | –
CCCCOc1ccc(C(=O)Nc2cc(C)on2)cc1 [MMV007906] | 12 | 4 | Inactive | – | – | –
Cc1ccc(Nc2nc(-c3ccccn3)cs2)cc1 [MMV007907] | -73 | -2.2 | – | 7.43 | – | –
O=c1nc(C=Cc2ccc(Cl)cc2)oc2ccccc12 [MMV007977] | 25 | 4 | Inactive | – | – | –
CCOc1ccc(CCNC(=O)c2cccs2)cc1OCC [MMV007978] | -13 | 4 | Inactive | – | – | –
CN1CCN(c2c3c(c(C#N)c4nc5ccccc5n24)CCC3)CC1 [MMV008127] | -5 | 4 | Inactive | – | – | –
O=C(O)C1Cc2c([nH]c3ccccc23)C(c2ccc(Cl)cc2Cl)N1 (centres unmarked) [MMV008138] | -1 | 4 | Inactive | – | – | –
Cc1c(C)n(Cc2ccc(F)cc2)c2ccc(C(=O)NCc3ccco3)cc12 [MMV008149] | 17 | 4 | Inactive | – | – | –
CN1C=C(c2ccc3ccccc3n2)C(c2c[nH]c3ccccc23)c2ccccc21 (centres unmarked) [MMV008160] | -87 | -2.1 | – | 14.8 | – | –
COc1cc(OC)cc(N2C(=O)N(Cc3ccc(C(C)(C)C)cc3)c3ccccc3S2(=O)=O)c1 [MMV008173] | 0 | 4 | Inactive | – | – | –
COc1ccc2nc(C)cc(Nc3cccc(O)c3)c2c1.Cl [MMV008212] | -64 | -2.2 | – | 29.6 | – | –
CCOC(=O)c1cnc2c(C)cc(C)cc2c1Nc1ccc(OC)c(OC)c1 [MMV008294] | -8 | 4 | Inactive | – | – | –
CCCc1c(CC)c(=N)c2ccccc2n1C [MMV008416] | -53 | -2.2 | – | 37.2 | – | –
COc1ccc(C2C(C(=O)Nc3cccc(OC)c3)c3ccccc3C(=O)N2C2CCCCC2)cc1 (centres unmarked) [MMV008455] | -89 | -2.1 | – | 16.6 | – | –
CCN1CCN(c2c(C(=O)c3ccccc3)cnc3cc(OC)c(OC)cc23)CC1 [MMV008474] | -32 | -2.4 | Inactive | – | – | –
CCCn1c(=N)c(C(=O)NC2CCCCC2)cc2c(=O)n3cccc(C)c3nc21 [MMV008829] | -26 | 4 | Inactive | – | – | –
CCOc1cc2c(cc1OCC)C(c1cc(OC)c(O)cc1Cl)NCC2 (centres unmarked) [MMV008956] | -73 | -1.2 | – | 3.32 | – | –
O=C(CCc1ccccc1)c1ccccc1OCC(O)CN1CCCCC1 (centres unmarked) [MMV009015] | -74 | -2.2 | – | 7.43 | – | –
CCN(CC)c1ccc(NC(=O)c2cccs2)cc1 [MMV009060] | 20 | 4 | Inactive | – | – | –
OC(CNC1CCCCC1)Cn1c2ccccc2c2ccccc21 (centres unmarked) [MMV009063] | -99 | -1.1 | – | 2.35 | – | –
O=C1c2ccc3c4c(ccc(c24)C(=O)N1CCCCO)C(=O)N(CCCCO)C3=O [MMV009085] | -71 | -2.2 | – | 14.8 | – | –
Br.CCN(CC)S(=O)(=O)c1ccc(-c2csc(Nc3ccc(C)c(C)c3)n2)cc1 [MMV009108] | -14 | 4 | Inactive | – | – | –
CC1CCN(Cc2c(O)ccc3cc(-c4nc5ccccc5s4)c(=O)oc23)CC1 [MMV009127] | -72 | -2.2 | – | 29.6 | – | –
Cc1cc(Nc2ccc3ccccc3c2)n2ncnc2n1 [MMV011099] | -5 | 4 | Inactive | – | – | –

SMILES | Max Resp (Malaria Box) [%] | Curve Class [1] | IC50 [2] | IC50 [3] [µM] | reduction of gametocyte viability (Malaria Box screen) [%] | IC50 (P. falciparum 3D7 gametocytes, mean of at least 3 independent experiments, read-out: Gametocyte IC50) [µM]
Cc1cc(Nc2ccc(Cl)cc2)n2nc(C(F)(F)F)nc2n1 [MMV011256] | -9 | 4 | Inactive | – | – | –
Cc1cc(C)cc(Nc2cc(C)nc3nc(C(F)(F)F)nn23)c1 [MMV011259] | 4 | 4 | Inactive | – | – | –
Cc1ccc(Nc2nc(N)c3ccccc3n2)cc1Cl [MMV011522] | -73 | -2.2 | – | 14.8 | – | –
COc1ccc(C(=O)Nc2nonc2-c2ccc(OC)c(OC)c2)cc1Cl [MMV011567] | 1 | 4 | Inactive | – | – | –
CCOC(=O)C1CCN(C(=O)CN2C(=O)c3ccccc3C2c2c[nH]c3ccccc23)CC1 (centres unmarked) [MMV011576] | -98 | -1.1 | – | 3.72 | – | –
O=C(O)C(=O)O.Oc1ccccc1CN1CCN(C(c2ccccc2)c2ccccc2)CC1 [MMV011795] | -53 | -2.2 | – | 5.9 | – | –
Oc1ccc2ccccc2c1CNc1nc2ccccc2[nH]1 [MMV011832] | -67 | -2.2 | – | 29.6 | – | –
Nc1ccc(-c2nc3cc(Oc4ccc(Oc5ccc6[nH]c(-c7ccc(N)cc7)nc6c5)cc4)ccc3[nH]2)cc1 [MMV011895] | -78 | -2.2 | – | 18.7 | – | –
COc1cccc(Nc2nc(NCCO)c3ccccc3n2)c1.Cl [MMV011944] | -68 | -2.2 | – | 14.8 | – | –
Cc1cc(NC(=O)c2ccc(-c3ccccc3)cc2)no1 [MMV018984] | 14 | 4 | Inactive | – | – | –
COCCNCC(O)Cn1c2ccc(Cl)cc2c2cc(Cl)ccc21 (centres unmarked) [MMV019017] | -94 | -1.1 | – | 2.64 | – | –
COc1cccc(-c2nn(C)c3sc(C(=O)NCCN4CCN(c5ccccc5F)CC4)cc23)c1 [MMV019064] | -42 | -2.2 | Inactive | – | – | –
COc1ccccc1CNC(=O)CCn1c(=O)[nH]c2ccsc2c1=O [MMV019066] | -11 | 4 | Inactive | – | – | –
CCN1CCN(c2cc(C)c3cc(NC(=O)c4ccc(OC)c(OC)c4)ccc3n2)CC1 [MMV019074] | -32 | -2.2 | Inactive | – | – | –
Cc1cccc(Nc2nc(N)c3ccccc3n2)c1.Cl [MMV019110] | -65 | -2.2 | – | 18.7 | – | –
CCN(Cc1ccccc1)C1CCN(Cc2cc(Br)ccc2O)CC1.O=C(O)C(=O)O [MMV019127] | -56 | -1.2 | – | 0.935 | – | –
COc1cccc(Nc2nc(N)c3ccccc3n2)c1.Cl [MMV019199] | -66 | -2.2 | – | 23.5 | – | –
CCOc1cccc(C(=O)Nc2ccc(-c3nc4ccccc4[nH]3)cc2)c1 [MMV019202] | -23 | 4 | Inactive | – | – | –
O=C(Nc1ccc(-c2nc3cc4ccccc4cc3[nH]2)cc1)c1cccc(Br)c1 [MMV019241] | -32 | -2.4 | Inactive | – | – | –
COc1ccc(-n2ccnc2SCC(=O)Nc2cc(C)ccc2C)c(OC)c1 [MMV019258] | -8 | 4 | Inactive | – | – | –
Cc1sc2ncnc(Sc3nc4ccccc4[nH]3)c2c1C [MMV019266] | -72 | -2.2 | – | 11.8 | – | –
Cn1c(=O)c2cc(C(=O)NCCCN3CCCCCC3)sc2c2ccccc21 [MMV019313] | -46 | -2.2 | Inactive | – | – | –
CCC1(C)CC(CCNCc2ccccc2O)(c2ccc(C)cc2)CCO1 (centres unmarked) [MMV019406] | -82 | -1.1 | – | 0.418 | > 75 | < 1
